From patent US7956082B2, “Indole derivative having PGD2 receptor antagonist activity” (Shionogi & Co., Ltd, priority 2005, dated 2011)
Where a name gives a salt, the structure may show the parent alone.

Columns and labels:
DP receptor [1] = target: T1, DP receptor (Homo sapiens, UniProt Q13258); experiment: cAMP assay with washed platelets (DP inhibitory activity in vitro); assay type: cell-based; conditions: 100 nM PGD2, cAMP by HTRF, read-out: IC50 (50% DP-inhibitory concentration in the cAMP assay)
T1 construct: endogenous in cells; host or cells: washed platelets from peripheral blood of a healthy volunteer (whole platelets in A1, platelet membrane fraction in A2)
T1 sequence (Q13258 1-359): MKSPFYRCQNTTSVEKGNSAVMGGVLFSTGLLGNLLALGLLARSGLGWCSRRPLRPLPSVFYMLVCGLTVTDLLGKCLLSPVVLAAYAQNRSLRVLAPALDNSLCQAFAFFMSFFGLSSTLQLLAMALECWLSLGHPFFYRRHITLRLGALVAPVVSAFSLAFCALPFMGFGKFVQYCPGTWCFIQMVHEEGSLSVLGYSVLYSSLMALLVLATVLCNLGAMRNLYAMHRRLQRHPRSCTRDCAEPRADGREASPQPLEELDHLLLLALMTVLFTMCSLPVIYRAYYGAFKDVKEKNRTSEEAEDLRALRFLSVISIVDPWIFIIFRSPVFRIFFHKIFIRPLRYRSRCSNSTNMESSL
Description: 1) Preparation of Platelet and a Method of cAMP Assay
30 ml of peripheral blood was collected from a healthy volunteer using a syringe containing one ninth amount of 3.8% sodium citrate for diagnosis. After being centrifuged at 180 g for 10 minutes at room temperature, a supernatant was collected and used as Platelet Rich Plasma (PRP). The resulting PRP was washed with wash buffer and centrifuged three times (Washed Platelet: WP) and platelets were counted by a microcell counter. WP was added to a plate in amount of 1.5×10^8/assay and the plate was treated, with 3-isobutyl-1-methylxanthin (IBMX; 0.5 mM) for 5 minutes. A reaction was initiated by adding 100 nM of PGD2 5 min after an addition of a test compound. The reaction was terminated with an addition of 1N HCl after 2 minutes and the cells were destructed using 12% triton X-100. An amount of cAMP in the supernatant was assayed by Homogeneous […] (HTRF)

DP receptor [2] = target: T1, DP receptor; experiment: Receptor binding assay, [3H]-PGD2, platelet membrane; conditions: [3H]-PGD2, human platelet membrane, on ice 2 hours
Description: 2) Receptor Binding Assay A prepared WP was homogenated and a membrane fraction was collected with high-speed centrifugation. A compound of the present invention or a reference compound A(No. IC-73 in WO 2003/097598) was added to the plate and [^3H]-PGD2 was also added. A platelet membrane, a protein concentration is 2 mg/mL, was added and mixed in the plate, and placed on ice for 2 hours. The reaction solution was transferred to a low protein-adsorptive filter and washed with a wash solution eight times using a cell harvester. After the final washing, water was removed sufficiently, and micoscinti was added. DP inhibitory activity was investigated by measuring [^3H] by using Micro Beta.

Brown Norway (BN) Rats = experiment: Test using OVA asthma model of rat; assay type: in vivo; conditions: 10 mg/kg p.o. once a day for three days, vs control group; for inhibition rate (%) increased hyperresponsive airway: AUC of acetylcholine response curve; for inhibition rate (%) mucus-secretion: mucin in airway lavage fluid; for inhibition rate (%) infiltration of inflammatory cells: total cell number in bronchoalveolar washings
Description: Brown Norway (BN) Rats were sensitized by i.p. administration of 0.1 mg/mL of ovalbumin (OVA) and 1 mg of aluminum hydroxide gel. A solution of 1% OVA was aerosolized by ultrasonic nebulizer (NE-U17) and the rats were subjected to inhalation exposure of the aerosol for 30 minutes in an exposing chamber 12, 19, 26 and 33 days after the sensitization. One hour before the 4th exposure of the antigen, compounds of the present invention were administered in a dose of 10 mg/kg p.o. once a day for three days consecutively. In a control group, 0.5% of methyl cellulose was administered in place of the compound of the present invention.
Under pentobarbital anesthesia (80 mg/kg, i.p.), acetylcholine (3.9, 7.8, 15.6, 31.3, 62.5, 125, 250 and 500 μg/kg) was injected to jugular vein of the rats successively from a lower dose at intervals of 5 minutes three days after the fourth exposure to the antigen, and immediate contractile reaction of airways (an increase of insufflation pressure) was measured by a modified method of Konnzett & Rössler. Inhibition rate of increased hyperresponsive airway against the control group was calculated based on area under curve (AUC) obtained from concentration-response curve of acetylcholine.
After the measurement of increased hyperresponsive airway was; completed, bronchoalveoli of the rats were washed with 5 mL of saline three times. Total cell number in the washings was counted by a hemacytometer under light microscope, and inhibition rates of infiltration of inflammatory cells against the control group were calculated. Further, muchin in the airway lavage fluid was measured by ELIZA method using jacalin, a muchin-binding lectin, and the inhibition rates of mucus-secretion against the control group were calculated.

Structure (SMILES)	IC50 (DP receptor [1]) [nM]	Ki (DP receptor [2]) [nM]	further results
CC(C)Oc1ccc(S(=O)(=O)N2CC[C@H](c3cn(CC(=O)O)c4ccc(Cl)cc34)C2)cc1 (as salt: TFA) [Compound I-62]			melting point: 188 to 189 °C
CC(C)Oc1ccc(S(=O)(=O)N2CC[C@@H](c3cn(CC(=O)O)c4ccc(Cl)cc34)C2)cc1 (as salt: TFA) [Compound I-65]			melting point: 167 °C
CC(C)Oc1ccc(S(=O)(=O)N2CCC(c3cn(CC(=O)O)c4ccc(Cl)cc34)CC2)cc1 [Compound I-3]	1.3	1.3	
CC(C)Oc1ccc(S(=O)(=O)N2CCC(c3cn(CC(=O)O)c4ccc(F)cc34)C2)cc1 (stereo not drawn) [Compound I-9]	2.3	4.5	
CC(C)Oc1ccc(S(=O)(=O)N2CCC(c3cn(CC(=O)O)c4ccc(Cl)cc34)C2)cc1 (stereo not drawn) [Compound I-10]	1	2.5	
CC(C)Oc1ccc(S(=O)(=O)N2CCC(c3cn(CC(=O)O)c4cc(Cl)ccc34)C2)cc1 (stereo not drawn) [Compound I-14]	0.98	2.1	inhibition rate (%) increased hyperresponsive airway (Brown Norway (BN) Rats): 31%; inhibition rate (%) mucus-secretion (Brown Norway (BN) Rats): 55%; inhibition rate (%) infiltration of inflammatory cells (Brown Norway (BN) Rats): 57%
CC(C)Oc1ccc(S(=O)(=O)N2CCC(c3cn(CC(=O)O)c4c(Cl)cccc34)C2)cc1 (stereo not drawn) [Compound I-19]	1.3	4.2	
CC(C)Oc1ccc(S(=O)(=O)N2CCC(c3cn(CC(=O)O)c4ccc(F)cc34)CC2)cc1 [Compound I-23]	1.9	2.2	
CC(C)Oc1ccc(S(=O)(=O)N2CCC(c3cn(CC(=O)O)c4cc(F)ccc34)C2)cc1 (stereo not drawn) [Compound I-34]	2.3	3.4	
CCOc1ccc(S(=O)(=O)N2CCC(c3cn(CC(=O)O)c4ccc(Cl)cc34)C2)cc1 (stereo not drawn) [Compound I-38]	2	4.7	
CC(C)Oc1ccc(S(=O)(=O)N2CCC(c3cn(CC(=O)O)c4c(Cl)cc(Cl)cc34)C2)cc1 (stereo not drawn) [Compound I-45]	1.5	19	
CC(C)Sc1ccc(S(=O)(=O)N2CCC(c3cn(CC(=O)O)c4ccc(Cl)cc34)C2)cc1 (stereo not drawn) [Compound I-59]	1.1		
CC(C)Oc1ccc(S(=O)(=O)N2CCC(c3cn(CC(=O)O)c4cc(Br)ccc34)C2)cc1 (stereo not drawn) [Compound I-60]	0.73	3.5	
CC(C)Oc1ccc(S(=O)(=O)N2CC[C@@H](c3cn(CC(=O)O)c4ccc(Cl)cc34)C2)cc1 [Compound I-65]	0.34	2.3	inhibition rate (%) increased hyperresponsive airway (Brown Norway (BN) Rats): 62%; inhibition rate (%) mucus-secretion (Brown Norway (BN) Rats): 40%; inhibition rate (%) infiltration of inflammatory cells (Brown Norway (BN) Rats): 61%
CC(C)Oc1ccc(S(=O)(=O)N2CCC(c3cn(CC(=O)O)c4cc(-c5cccs5)ccc34)C2)cc1 (stereo not drawn) [Compound I-66]	1.9		
CC(C)Oc1ccc(S(=O)(=O)N2CCC(c3cn(CC(=O)O)c4cc(-c5ccsc5)ccc34)C2)cc1 (stereo not drawn) [Compound I-67]	1.4		
CC(C)Oc1ccc(S(=O)(=O)N2CCC(c3cn(CC(=O)O)c4cc(-c5ccc(C#N)cc5)ccc34)C2)cc1 (stereo not drawn) [Compound I-72]	2.2		
CC(C)Oc1ccc(S(=O)(=O)N2CCC(c3cn(CC(=O)O)c4cc(-c5cccc(C#N)c5)ccc34)C2)cc1 (stereo not drawn) [Compound I-73]	2		
COc1ccc(-c2ccc3c(C4CCN(S(=O)(=O)c5ccc(OC(C)C)cc5)C4)cn(CC(=O)O)c3c2)cc1 (stereo not drawn) [Compound I-74]	1.9		

Structure (SMILES)	IC50 (DP receptor [1]) [nM]	Ki (DP receptor [2]) [nM]	further results
CC(C)Oc1ccc(S(=O)(=O)N2CCC(c3cn(CC(=O)O)c4cc(-c5ccncc5)ccc34)C2)cc1.Cl (stereo not drawn) [Compound I-75]	1.7	0.66	inhibition rate (%) increased hyperresponsive airway (Brown Norway (BN) Rats): 58%; inhibition rate (%) mucus-secretion (Brown Norway (BN) Rats): 77%; inhibition rate (%) infiltration of inflammatory cells (Brown Norway (BN) Rats): 71%
CC(C)Oc1ccc(S(=O)(=O)N2CCC(c3cn(CC(=O)O)c4cc(-c5ccco5)ccc34)C2)cc1 (stereo not drawn) [Compound I-77]	0.62	0.37	inhibition rate (%) increased hyperresponsive airway (Brown Norway (BN) Rats): 110%; inhibition rate (%) mucus-secretion (Brown Norway (BN) Rats): 72%; inhibition rate (%) infiltration of inflammatory cells (Brown Norway (BN) Rats): 28%
CC(C)Oc1ccc(S(=O)(=O)N2CCC(c3cn(CC(=O)O)c4cc(-c5ccoc5)ccc34)C2)cc1 (stereo not drawn) [Compound I-78]	1.2		
CC(C)Oc1ccc(S(=O)(=O)N2CC[C@@H](c3cn(CC(=O)O)c4cc(Cl)ccc34)C2)cc1 [Compound I-79]	0.19	0.91	
CC(C)Oc1ccc(S(=O)(=O)N2CCC(c3cn(CC(=O)O)c4cc(-c5ccc6c(c5)OCO6)ccc34)C2)cc1 (stereo not drawn) [Compound I-80]	1.4		
COc1cccc(-c2ccc3c(C4CCN(S(=O)(=O)c5ccc(OC(C)C)cc5)C4)cn(CC(=O)O)c3c2)c1 (stereo not drawn) [Compound I-81]	0.86		
CC(C)Oc1ccc(S(=O)(=O)N2CCC(c3cn(CC(=O)O)c4cc(N5CCOCC5)ccc34)C2)cc1.Cl (stereo not drawn) [Compound I-82]			inhibition rate (%) increased hyperresponsive airway (Brown Norway (BN) Rats): 59%; inhibition rate (%) mucus-secretion (Brown Norway (BN) Rats): 47%; inhibition rate (%) infiltration of inflammatory cells (Brown Norway (BN) Rats): 35%
CC(C)Oc1ccc(S(=O)(=O)N2CCC(c3cn(CC(=O)O)c4cc(Br)ccc34)C2)cc1F (stereo not drawn) [Compound I-86]	1.3		
CC(C)Oc1ccc(S(=O)(=O)N2CCC(c3cn(CC(=O)O)c4cc(-c5nnco5)ccc34)C2)cc1 (stereo not drawn) [Compound I-88]	1.2	2.5	
CC(C)Oc1ccc(S(=O)(=O)N2CCC(c3cn(CC(=O)O)c4cc(-c5nccs5)ccc34)C2)cc1 (stereo not drawn) [Compound I-93]	0.5	0.24	
CC(C)Oc1ccc(S(=O)(=O)N2CC[C@@H](c3cn(CC(=O)O)c4cc(-c5nccs5)ccc34)C2)cc1 [Compound I-96]	0.23	0.21	
CC(C)Oc1ccc(S(=O)(=O)N2CCC(c3cn(CC(=O)O)c4cc(C#N)ccc34)CC2)cc1 [Compound I-98]	0.97		
CC(C)Oc1ccc(S(=O)(=O)N2CCC(c3cn(CC(=O)O)c4cc(-c5ccccn5)ccc34)CC2)cc1 [Compound I-99]	1.9		
CC(C)Oc1ccc(S(=O)(=O)N2CCC(c3cn(CC(=O)O)c4cc(-c5nccs5)ccc34)CC2)cc1 [Compound I-100]	1.9		
CC(C)Oc1ccc(S(=O)(=O)N2CC[C@@H](c3cn(CC(=O)O)c4cc(-c5ccco5)ccc34)C2)cc1 [Compound I-101]	0.27	0.21	
CC(C)Oc1ccc(S(=O)(=O)N2CCC(c3cn(CC(=O)O)c4cc(-c5nncs5)ccc34)CC2)cc1 [Compound I-102]	0.56		
CC(C)Oc1ccc(S(=O)(=O)N2CC[C@@H](c3cn(CC(=O)O)c4cc(-c5ncco5)ccc34)C2)cc1 [Compound I-103]	0.14	20	inhibition rate (%) increased hyperresponsive airway (Brown Norway (BN) Rats): 71%; inhibition rate (%) mucus-secretion (Brown Norway (BN) Rats): 52%; inhibition rate (%) infiltration of inflammatory cells (Brown Norway (BN) Rats): 58%
CC(C)Oc1ccc(S(=O)(=O)N2CCC(c3cn(CC(=O)O)c4cc(-c5ncco5)ccc34)CC2)cc1 [Compound I-104]	1.2	1.3	
CC(C)Oc1ccc(S(=O)(=O)N2CCC(c3cn(CC(=O)O)c4cc(N5CCCC5=O)ccc34)C2)cc1 (stereo not drawn) [Compound I-107]	2.3		
